Test results published in patent US20160186196A1 (priority 2009, published 2016).

Assays:
Type in all cases: cell-based, Chlamydomonas reinhardtii
[1] = test system: C. reinhardtii UTEX 2244 and transformants; experiment: Rose Bengal photooxidative stress kill curves in liquid culture; conditions: 2 μM Rose Bengal, within the first five hours of exposure
Description: Exposure of C. reinhardtii to Rose Bengal was performed as follows. In order to induce apoptosis in C. reinhardtii by the mechanism of photooxidative stress, algal cells were grown on solid medium containing various concentrations of the photosensitizing dye Rose Bengal as described in Fischer et al. (Plant Sci, 168:747-759 (2005)). Duplicate plates with RB levels as high as up to 2.0 μM were initially spread with 1×10^3 cells and resulting colonies were counted after a: period of one week. UTEX 2244 was used as a control. Cell viability is reported as a percentage of surviving cells. Additionally, kill curves were conducted in liquid culture using 100-ml stirrer flasks under the same cultivation conditions mentioned previously, with the exception of aeration. Each culture was seeded with an inoculum of exponentially growing cells (1×10^6 cells ml^−1) and the cell density was measured with a Zeiss Axiovert™ 100 inverted light microscope using a hemocytometer over a one-week period. In the experimental flasks, 100x RB dissolved in isopropanol stock solution was added three days after inoculation to cultures of approximately 0.2×10^6 cells ml^−1 in order achieve a final concentration of 2.0 μM; control flasks were unaltered.

[2] = test system: C. reinhardtii UTEX 2244; experiment: Minimum inhibitory bleocin concentration on solid medium, wild-type cells
Description: (§1) Exposure of C. reinhardtii to antibiotic selective pressure was performed as follows. In order to test the efficacy of the antibiotic bleocin (EMD Biosciences) on C. reinhardtii UTEX 2244, algal cells were grown on solid medium containing various concentrations of this selective agent—0, 0.25, 0.5, 1.0, 2.0, 4.0, 6.0, and 8.0 mg L^−1. Duplicate plates were initially spread with either 1×10^3 or 5×10^7 wild-type cells and the cultures' viability was examined over a period of two weeks. Once stable transformants were obtained, this experiment was repeated with a mixed population of wild-type and bleomycin-resistant cells (5×10^7:1×10^3) to verify the emergence of individual colonies from the surrounding lawn of algal cells.

[3] = test system: bleomycin-resistant C. reinhardtii stable transformants; experiment: Bleocin kill curves on solid medium, mixed population of wild-type and bleomycin-resistant cells; conditions: mixed population wild-type:bleomycin-resistant cells 5×10^7:1×10^3, solid medium, two weeks
Description: as §1

Molecule | effect on cell populations [1] | minimum inhibitory concentration (M.I.C.) to eradicate the entire population ([2]; high density lawn, 5×10^7 cells per plate, two-week incubation) | concentration sufficient to completely inhibit growth (absence of colony formation) ([2]; low density, 1,000 cells per plate, solid medium) | concentration giving widespread cell death ([2]; within only four days of exposure) | bleocin concentration in which some stable transformants were able to survive [3]
O=C([O-])c1c(Cl)c(Cl)c(Cl)c(Cl)c1-c1c2cc(I)c(=O)c(I)c-2oc2c(I)c([O-])c(I)cc12.[Na+].[Na+] [Rose Bengal] | all populations experienced some cell death | – | – | – | –
bleocin | – | at least 1 mg L^−1 | 0.25 mg/L | more than 4 mg L^−1 | ≤ 8 mg/L
